Measured values taken from the supplement of paper PMC11952222, “Development and comparison of single FLT3-inhibitors to dual FLT3/TAF1-inhibitors as an anti-leukemic approach” (PLOS One, 2025).
± gives the standard deviation of the averaged measurements.

What follows are compounds tested on HDQP1 (assay: cell viability (CellTiter-Glo luminescence) relative to DMSO (fraction of DMSO control); higher = higher signal (more live cells for CellTiter-Glo)). Conditions: 0.1 µM; 72 h.
Description: (§1)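 MOLM13, DU4475, HDQP1 and IGROV1 cells were treated with compounds in 384-well format for 72 h (KASUMI-1 in 96-well plates, RPMI + 10% FCS, 72 h). Viability was read with CellTiter-Glo and cell death with CellTox Green, both normalised to DMSO vehicle. Doses ranged 0.001-30 µM.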

Row | Structure (SMILES) | cell viability
1 | Cc1cc(-c2cc(NC(=O)c3ccc(C(C)(C)C)cc3)[nH]n2)ccn1 [3i-1246] | 0.99 ± 0.031
2 | CC(C)(C)c1ccc(C(=O)Nc2cc(-c3ccccc3)n[nH]2)cc1 [3i-1247] | 1 ± 0.016
3 | Cn1cc(-c2cc(NC(=O)c3ccc(C(C)(C)C)cc3)n[nH]2)ccc1=O [3i-1248] | 0.989 ± 0.033

Same assay, conditions: 0.3 µM; 72 h

Row | Structure (SMILES) | cell viability
4 | CC(C)(C)c1cc(NC(=O)Nc2ccc(-c3cn4c(n3)sc3cc(OCCN5CCOCC5)ccc34)cc2)no1 [quizartinib] | 0.87 ± 0.054
5 | C=CCCn1cc(-c2cc(C(=O)N3CCOCC3)cc3c2ncn3C)c2cc[nH]c2c1=O [GNE-371] | 1.02 ± 0.036
6 | Cc1cc(-c2cc(NC(=O)c3ccc(C(C)(C)C)cc3)[nH]n2)ccn1 [3i-1246] | 0.986 ± 0.057
7 | CC(C)(C)c1ccc(C(=O)Nc2cc(-c3ccccc3)n[nH]2)cc1 [3i-1247] | 0.943 ± 0.046
8 | Cn1cc(-c2cc(NC(=O)c3ccc(C(C)(C)C)cc3)n[nH]2)ccc1=O [3i-1248] | 0.981 ± 0.082

Same assay, conditions: 1 µM; 72 h

Row | Structure (SMILES) | cell viability
9 | CC(C)(C)c1cc(NC(=O)Nc2ccc(-c3cn4c(n3)sc3cc(OCCN5CCOCC5)ccc34)cc2)no1 [quizartinib] | 0.807 ± 0.021
10 | C=CCCn1cc(-c2cc(C(=O)N3CCOCC3)cc3c2ncn3C)c2cc[nH]c2c1=O [GNE-371] | 0.975 ± 0.04
11 | Cc1cc(-c2cc(NC(=O)c3ccc(C(C)(C)C)cc3)[nH]n2)ccn1 [3i-1246] | 0.928 ± 0.083
12 | CC(C)(C)c1ccc(C(=O)Nc2cc(-c3ccccc3)n[nH]2)cc1 [3i-1247] | 0.877 ± 0.062
13 | Cn1cc(-c2cc(NC(=O)c3ccc(C(C)(C)C)cc3)n[nH]2)ccc1=O [3i-1248] | 0.973 ± 0.046

Same assay, conditions: 3 µM; 72 h

Row | Structure (SMILES) | cell viability
14 | CC(C)(C)c1cc(NC(=O)Nc2ccc(-c3cn4c(n3)sc3cc(OCCN5CCOCC5)ccc34)cc2)no1 [quizartinib] | 0.716 ± 0.088
15 | C=CCCn1cc(-c2cc(C(=O)N3CCOCC3)cc3c2ncn3C)c2cc[nH]c2c1=O [GNE-371] | 0.971 ± 0.055
16 | Cc1cc(-c2cc(NC(=O)c3ccc(C(C)(C)C)cc3)[nH]n2)ccn1 [3i-1246] | 0.943 ± 0.068
17 | CC(C)(C)c1ccc(C(=O)Nc2cc(-c3ccccc3)n[nH]2)cc1 [3i-1247] | 0.786 ± 0.061
18 | Cn1cc(-c2cc(NC(=O)c3ccc(C(C)(C)C)cc3)n[nH]2)ccc1=O [3i-1248] | 0.913 ± 0.048

Same assay, conditions: 10 µM; 72 h

Row | Structure (SMILES) | cell viability
19 | CC(C)(C)c1cc(NC(=O)Nc2ccc(-c3cn4c(n3)sc3cc(OCCN5CCOCC5)ccc34)cc2)no1 [quizartinib] | 0.84 ± 0.095
20 | C=CCCn1cc(-c2cc(C(=O)N3CCOCC3)cc3c2ncn3C)c2cc[nH]c2c1=O [GNE-371] | 0.999 ± 0.056
21 | Cc1cc(-c2cc(NC(=O)c3ccc(C(C)(C)C)cc3)[nH]n2)ccn1 [3i-1246] | 0.628 ± 0.098
22 | CC(C)(C)c1ccc(C(=O)Nc2cc(-c3ccccc3)n[nH]2)cc1 [3i-1247] | 0.719 ± 0.071
23 | Cn1cc(-c2cc(NC(=O)c3ccc(C(C)(C)C)cc3)n[nH]2)ccc1=O [3i-1248] | 0.807 ± 0.054

Same assay, conditions: 30 µM; 72 h

Row | Structure (SMILES) | cell viability
24 | CC(C)(C)c1cc(NC(=O)Nc2ccc(-c3cn4c(n3)sc3cc(OCCN5CCOCC5)ccc34)cc2)no1 [quizartinib] | 0.69 ± 0.13
25 | C=CCCn1cc(-c2cc(C(=O)N3CCOCC3)cc3c2ncn3C)c2cc[nH]c2c1=O [GNE-371] | 0.979 ± 0.047
26 | Cc1cc(-c2cc(NC(=O)c3ccc(C(C)(C)C)cc3)[nH]n2)ccn1 [3i-1246] | 0.178 ± 0.052
27 | CC(C)(C)c1ccc(C(=O)Nc2cc(-c3ccccc3)n[nH]2)cc1 [3i-1247] | 0.584 ± 0.12
28 | Cn1cc(-c2cc(NC(=O)c3ccc(C(C)(C)C)cc3)n[nH]2)ccc1=O [3i-1248] | 0.269 ± 0.13

What follows are compounds tested on IGROV1 in the same assay as above. Conditions: 0.01 µM; 72 h.
Description: as §1

Row | Structure (SMILES) | cell viability
29 | CC(C)(C)c1cc(NC(=O)Nc2ccc(-c3cn4c(n3)sc3cc(OCCN5CCOCC5)ccc34)cc2)no1 [quizartinib] | 1.08 ± 0.081
30 | C=CCCn1cc(-c2cc(C(=O)N3CCOCC3)cc3c2ncn3C)c2cc[nH]c2c1=O [GNE-371] | 1.07 ± 0.11
31 | Cc1cc(-c2cc(NC(=O)c3ccc(C(C)(C)C)cc3)[nH]n2)ccn1 [3i-1246] | 0.998 ± 0.05
32 | CC(C)(C)c1ccc(C(=O)Nc2cc(-c3ccccc3)n[nH]2)cc1 [3i-1247] | 0.974 ± 0.071
33 | Cn1cc(-c2cc(NC(=O)c3ccc(C(C)(C)C)cc3)n[nH]2)ccc1=O [3i-1248] | 0.989 ± 0.047

Same assay, conditions: 0.1 µM; 72 h

Row | Structure (SMILES) | cell viability
34 | CC(C)(C)c1cc(NC(=O)Nc2ccc(-c3cn4c(n3)sc3cc(OCCN5CCOCC5)ccc34)cc2)no1 [quizartinib] | 1.07 ± 0.1
35 | C=CCCn1cc(-c2cc(C(=O)N3CCOCC3)cc3c2ncn3C)c2cc[nH]c2c1=O [GNE-371] | 1.02 ± 0.07
36 | Cc1cc(-c2cc(NC(=O)c3ccc(C(C)(C)C)cc3)[nH]n2)ccn1 [3i-1246] | 0.958 ± 0.072
37 | CC(C)(C)c1ccc(C(=O)Nc2cc(-c3ccccc3)n[nH]2)cc1 [3i-1247] | 0.955 ± 0.11
38 | Cn1cc(-c2cc(NC(=O)c3ccc(C(C)(C)C)cc3)n[nH]2)ccc1=O [3i-1248] | 0.982 ± 0.075

Same assay, conditions: 0.3 µM; 72 h

Row | Structure (SMILES) | cell viability
39 | CC(C)(C)c1cc(NC(=O)Nc2ccc(-c3cn4c(n3)sc3cc(OCCN5CCOCC5)ccc34)cc2)no1 [quizartinib] | 0.721 ± 0.12
40 | C=CCCn1cc(-c2cc(C(=O)N3CCOCC3)cc3c2ncn3C)c2cc[nH]c2c1=O [GNE-371] | 0.935 ± 0.064
41 | Cc1cc(-c2cc(NC(=O)c3ccc(C(C)(C)C)cc3)[nH]n2)ccn1 [3i-1246] | 0.866 ± 0.042
42 | CC(C)(C)c1ccc(C(=O)Nc2cc(-c3ccccc3)n[nH]2)cc1 [3i-1247] | 0.803 ± 0.035
